From article PMC12349723, “Computationally accelerated identification of P-glycoprotein inhibitors” (PLOS One, 2025)
Where “and” joins values, the source holds several entries; their conditions need not be identical. Equal values may be shown once. Read-outs that look alike come from different tables or passages of the source.

How the values were obtained:
[1] = tested on: P-gp; assay: SWISS-ADME prediction of P-gp transport substrate; details: prediction compared to the LC-MS/MS intracellular accumulation data
From the text: (§1) Identifying P-gp inhibitors that are not transport substrates remains inherently challenging. To that end, computational tools such as the SWISS-ADME server attempt to use a molecule’s unique chemical and structural characteristics to predict whether it is likely to be a P-gp transport substrate. Our LC-MS/MS assays allowed us to retroactively test the validity of predictions from SWISS-ADME. […] Alternative identifiers for the molecules identified in this study are shown in S7 Table.
(§2) S1 Table. Known P-gp Inhibitors and Predicted Chemical Properties. A non-exhaustive list of known P-gp inhibitors and their selected chemical properties ^[64, 65]. Clinical trial outcomes were adapted from ^[10, 11]. Compounds were evaluated using the SWISS-ADME server ^[54]. […] “Predicted P-gp Substrate” - predicted by SWISS-ADME to be a transport substrate of P-gp. “Known P-gp Substrate” – In addition to being P-gp inhibitors, these molecules are: known transport substrates of P-gp, known non-transport substrates of P-gp, unknown whether it is a transport substrate of P-gp ^[66-68]. If the molecule is designated in a specific generation of P-gp inhibitors - First Generation P-gp inhibitors, Second generation P-gp inhibitors, Third generation P-gp inhibitors.

[2] = tested on: A2780-ADR cells; assay: MTT viability assay, reversal of MDR in P-gp overexpressing A2780-ADR cells; assay type: cell-based, human; details: for Reversal of MDR in A2780-ADR cells: 15 µM compound with or without 500 nM PTX, 48 h, MTT; for Mean % Survival / % Survival (individual sample) / viability at 15 µM: A2780-ADR cells; for viability at 15 µM: Homo sapiens, A2780 ADR
Experimental: The chemotherapeutic sensitive DU145 human prostate cancer cells and the multidrug resistant sub-line, DU145-TXR, were generous gifts from Dr. Evan Keller (University of Michigan, Ann Arbor, MI). The MDR, P-gp overexpressing DU145-TXR cells were maintained under positive selection pressure by supplementing complete medium with 10 nM paclitaxel (Acros Organics, NJ). In addition to the aforementioned cell lines, the chemotherapeutic sensitive A2780 ovarian cancer cells (93112519, Sigma) and the multidrug resistant A2780-ADR (93112520, Sigma) were maintained in complete RPMI media consisting of RPMI-1640 with L-glutamine, 10% fetal bovine serum (FBS; Corning), 100 U/mL penicillin and 100 μg/mL streptomycin in a humidified incubator at 37 °C and 5% CO2. The MDR, P-gp overexpressing A2780-ADR cell line was maintained under positive selection pressure by supplementing complete medium with 100 nM doxorubicin (Fisher Scientific, NJ). The non-cancerous HFL1 (human lung fibroblast) cell line cell line was a generous gift from Dr. Robert Harrod (Southern Methodist University, Dallas, TX) and was maintained in complete F12K media consisting of F12K with 10% fetal bovine serum, 100 U/mL penicillin, and 100 µg/mL streptomycin (Gibco). Flasks and 96 well plates that were used with the non-cancerous line HFL1 were pre-treated with 0.1 mg/ml Collagen Type 1 (Gibco) and rinsed with PBS (Fisher).
Culture of the DU145, DU145-TXR, and HFL1 cell lines was performed as described in [8]. Culture of the A2780 and A2780-ADR cell lines was performed as described in [9]. MTT assays were performed as described in [8] with minor modifications. LC-MS/MS accumulation assays were performed as described in {Nanayakkara, 2018 #173} [9] with some modifications. […] The inhibitor concentration was lowered to 15 µM here, as the goal of the study was to identify compounds that were effective in reversing MDR at low concentrations, and to determine if the expanded virtual-assisted methods improved on our first-draft attempt. Compounds 56–98 were pre-screened using Resazurin cell viability assays: cells were incubated with 15 µM compound with or without 500 nM PTX for 48 hours, after which cell survival was assessed similar to [39]. Data represent the mean of two separate experiments, with n = 3 samples per experiment (n = 6 total) (S4 Table). The top performing compounds from this initial screen were re-tested with MTT viability assays against DU145-TXR cells, as described below.
MTT assays measure the reduction of yellow, water soluble 3-(4,5-dimethylthiazol-2-yl)-2,5-diphenyltetrazolium bromide (MTT) to blue, insoluble formazan crystals by cellular reductase processes in living cells. Cells were trypsinized from monolayers and seeded in complete medium in 96 well plates. Cancerous cell lines (DU145, DU145-TXR, A2780, A2780-ADR) were seeded at 3,000 cells per well in complete RPMI medium. The non-cancerous HFL1 line was seeded at 4,000 cells per well in complete F12K medium, in collagen-treated plates (Collagen Type 1, Gibco). Cells were incubated with experimental compounds for 48 hours at 37 °C and 5% CO2 in a humidified incubator. At 48 hours, MTT was added (20 µL/well of 5 mg/mL MTT in PBS) to each well. After incubation for 4 hours, the media was removed, and the formazan crystals were dissolved in 100 µL DMSO per well. Plates containing the semi-adherent A2780 or A2780-ADR lines were spun at 1400 rpm for 3 minutes prior to aspiration of media, and the addition of DMSO. Plates were shaken for 10 minutes at 500 rpm on an Orbital shaker (LabDoctor from MidSci, St Louis, MO). The absorbance was measured at 570 nm using a Bio-Tek Cytation 5 (Bio-Tek, Winooski, VT). The measured absorbance value was correlated with the number of metabolically active cells in that well, corrected for absorbance of media. […]

[3] = SWISS-ADME computational analysis of chemical properties; details: predicted aqueous solubility compared to that observed in the laboratory
From the text: as §1, §2

[4] = molecular target: T1, P-gp (Homo sapiens, UniProt P08183); assay: Top Hit classification from combined in vitro criteria; details: reverse MDR, do not increase PTX toxicity in chemo-sensitive cancer cells, non-toxic to noncancerous cells, not P-gp substrates
T1 construct: The MDR, P-gp overexpressing DU145-TXR cells were maintained under positive selection pressure; endogenous in cells; host or cells: DU145-TXR (paclitaxel-resistant sub-line of DU145 human prostate cancer cells)

[5] = 15 µM compound + 500 nM PTX, mean of 12 samples
[6] = 15 µM compound alone, single samples (trials 1-3, samples 1-4)
[7] = 15 µM compound alone, mean of 12 samples, read-out: Mean % Survival
[8] = 15 µM compound + 500 nM PTX, single samples (trials 1-3, samples 1-4)

T1 sequence (P08183 whole entry): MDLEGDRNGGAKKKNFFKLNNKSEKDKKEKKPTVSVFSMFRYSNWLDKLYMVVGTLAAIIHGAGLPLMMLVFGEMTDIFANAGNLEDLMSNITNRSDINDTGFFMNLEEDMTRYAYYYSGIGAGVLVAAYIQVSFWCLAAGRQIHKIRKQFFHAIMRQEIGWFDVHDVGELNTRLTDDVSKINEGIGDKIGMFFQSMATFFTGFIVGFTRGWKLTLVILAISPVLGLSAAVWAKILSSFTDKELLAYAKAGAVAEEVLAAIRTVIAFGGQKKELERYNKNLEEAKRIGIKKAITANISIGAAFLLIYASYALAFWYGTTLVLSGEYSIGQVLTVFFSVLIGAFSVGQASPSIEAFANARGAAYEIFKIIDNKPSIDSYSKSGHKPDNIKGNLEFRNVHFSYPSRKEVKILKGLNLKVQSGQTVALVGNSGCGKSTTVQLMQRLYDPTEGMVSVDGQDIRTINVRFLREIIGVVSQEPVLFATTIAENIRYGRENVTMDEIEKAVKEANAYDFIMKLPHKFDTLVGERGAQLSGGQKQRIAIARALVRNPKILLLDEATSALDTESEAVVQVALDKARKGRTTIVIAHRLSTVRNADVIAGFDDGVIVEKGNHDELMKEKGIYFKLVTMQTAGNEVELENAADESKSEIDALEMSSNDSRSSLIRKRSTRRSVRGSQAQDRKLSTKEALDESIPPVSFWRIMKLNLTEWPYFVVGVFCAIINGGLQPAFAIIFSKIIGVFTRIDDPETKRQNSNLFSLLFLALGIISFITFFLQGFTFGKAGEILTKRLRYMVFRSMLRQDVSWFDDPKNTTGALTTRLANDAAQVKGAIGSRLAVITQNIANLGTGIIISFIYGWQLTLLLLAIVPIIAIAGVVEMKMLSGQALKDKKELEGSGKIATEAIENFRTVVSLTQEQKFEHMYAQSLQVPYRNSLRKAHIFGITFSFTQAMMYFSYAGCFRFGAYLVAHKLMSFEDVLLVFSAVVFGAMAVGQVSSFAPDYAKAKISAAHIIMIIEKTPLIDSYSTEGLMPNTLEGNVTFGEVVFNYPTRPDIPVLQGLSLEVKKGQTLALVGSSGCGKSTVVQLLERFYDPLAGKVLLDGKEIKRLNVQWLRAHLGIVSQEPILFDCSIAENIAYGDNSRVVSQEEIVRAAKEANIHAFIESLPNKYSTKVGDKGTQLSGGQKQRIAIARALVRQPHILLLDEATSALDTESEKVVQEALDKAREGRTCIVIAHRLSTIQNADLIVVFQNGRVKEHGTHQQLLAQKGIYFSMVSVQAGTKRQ

Compound | Correct P-gp Substrate Prediction? [1] | Reversal of MDR in A2780-ADR cells [2] | Mean % Survival [2, 5] [%] | % Survival (individual sample) [2, 6] | viability at 15 µM [2, 7] [%] | viability at 15 µM ([2]; 15 µM compound alone, single samples (trials 1-3, samples 1-4), read-out: % Survival (individual sample)) [%] | Correct Water Solubility Prediction? [3] | Top Hit [4] | % Survival (individual sample) [2, 8]
Cc1ccc(-c2noc(-c3cn(Cc4ccc(NS(=O)(=O)c5ccccc5F)cc4)cn3)n2)cc1 [Compound 103, Cc1ccc(cc1)-c1noc(n1)-c1cn(Cc2ccc(NS(=O)(=O)c3ccccc3F)cc2)cn1] | No | reversed MDR in A2780-ADR cells | 44.4 | 69% | 70.4 | 67 | No | No | 
Cc1onc(-c2ccccc2)c1-c1nnc(Cn2cnc3ccccc3c2=O)o1 [Compound 111, Cc1onc(c1-c1nnc(Cn2cnc3ccccc3c2=O)o1)-c1ccccc1] | No | reversed MDR in A2780-ADR cells | 47.6 | 95% and 98% | 97.3 |  | Yes | Yes | 52% and 38%
O=C(NCc1cccc(F)c1)c1nnn2c1Sc1c(C(=O)NCc3cccc(F)c3)nnn1CC2 [Compound 122, Fc1cccc(CNC(=O)c2nnn3CCn4nnc(C(=O)NCc5cccc(F)c5)c4Sc23)c1] | Yes | reversed MDR in A2780-ADR cells | 45.8 | 104% and 83% | 89.7 |  | Yes | No | 50% and 51% and 45%
O=C(c1nc(-c2ccccn2)no1)N1CCN(c2nsc3ccccc23)CC1 [Compound 124, O=C(N1CCN(CC1)c1nsc2ccccc12)c1nc(no1)-c1ccccn1] | No | reversed MDR in A2780-ADR cells | 52.5 | 94% and 91% | 92.5 |  | Yes | No | 58%
